Values of other authors as cited in the PKSmart pharmacokinetics tables (Seal et al. 2025).

Assay: Lombardo, Berellini, Obach 2018, Drug Metab Dispos 46:1466, doi 10.1124/dmd.118.082966
Conditions: human; for MRT / Vd / clearance / half-life: in vivo, iv; for fraction unbound: plasma

| Compound | MRT [h] | Vd [L/kg] | clearance [mL/min/kg] | half-life [h] | fraction unbound |
| --- | --- | --- | --- | --- | --- |
| Cn1nnnc1SCC1=C(C(=O)O)N2C(=O)C(=NC(=O)C(NOCC(=O)O)c3cc[nH]n3)[C@H]2SC1 (some centres undefined) | 1.8 | 0.22 | 1.83 | 1.33 |  |
| CNCC[C@H](Oc1cccc2ccccc12)c1cccs1 |  |  | 8.57 | 12 | 0.04 |
| CC(=O)Nc1ccc(C2=NNC(=O)CC2C)cc1 (centres undefined) | 88 | 2.38 | 0.45 | 70 | 0.4 |
| Cc1cnc(C(=O)NCCc2ccc(S(=O)(=O)NC(=O)NC3CCCCC3)cc2)cn1 | 4.8 |  |  |  |  |
| Cc1cnc(NCCCN(C)C)c2c1[nH]c1ccc3cc(O)ccc3c12 | 11 | 11 | 18 | 19 |  |
| CC[N+](CC)(CC)CCOc1cccc(OCC[N+](CC)(CC)CC)c1OCC[N+](CC)(CC)CC | 2.98 | 0.27 | 1.51 | 2.52 |  |
| Cc1cc(OC[C@H](O)CNC(C)C)c(C)c(C)c1O | 3.7 | 3.6 | 16.2 | 3.1 |  |
| CN1CC[C@]23c4c5ccc(O)c4O[C@H]2[C@@H](O[C@@H]2OC(C(=O)O)[C@@H](O)[C@H](O)[C@H]2O)C=C[C@H]3[C@H]1C5 (some centres undefined) | 0.91 | 0.12 | 2.2 | 1.4 | 0.67 |
| COc1cccc2c(C(=O)N3CCN(C)C(C)C3)cn(CC3CCCCC3)c12 (centres undefined) | 5.7 | 1 | 3 | 4.2 |  |
| CN(C)Cc1nnc2n1-c1ccc(Cl)cc1C(c1ccccc1)=NC2 | 2.6 | 0.98 | 6.2 | 2.1 |  |
| COC(=O)C1=C(C)NC(C)=C(C(=O)OC(C)C)C1c1cccc2nonc12 (centres undefined) | 1 | 1.5 | 26 | 3.3 | 0.04 |
| C[n+]1ccccc1C=NO | 1.5 | 0.8 | 9 | 1.4 | 1 |
| CN/C(=C\[N+](=O)[O-])NCCSCc1csc(CN(C)C)n1 | 1.7 | 1 | 9.8 | 1.5 |  |
| Cc1[nH]c(=O)c(C#N)cc1-c1ccc2nccn2c1 | 0.97 | 0.64 | 11 | 1.13 |  |
| C[C@]12CC[C@@H]3c4ccc([O-])cc4C[C@H](CCCCCCCCC[S+](O)CCCC(F)(F)C(F)(F)F)C3[C@@H]1CC[C@@H]2O (some centres undefined) | 5.86 | 4.15 | 11.8 | 16 | 0.01 |
| CN[C@@H]1[C@@H](O)[C@@H](O[C@@H]2[C@@H](O)[C@H](O[C@H]3O[C@H](CN)[C@@H](O)[C@H](O)[C@H]3O)[C@@H](N)C[C@H]2NC(=O)C(O)CN)OC[C@]1(C)O (some centres undefined) | 4.1 |  | 1.3 | 24 | 0.95 |
| c1cc2c(c(N3CCNCC3)c1)OCCO2 | 10.5 | 3.6 | 8 | 8.2 |  |
| COC(=O)N(C)c1c(N)nc(-c2nn(Cc3ccccc3F)c3ncccc23)nc1N | 10 | 0.44 | 0.74 | 9.1 |  |
| Cn1cc[nH]c1=S | 3.8 | 0.86 | 3.7 | 2.4 |  |
| Cc1ccc2c(-c3ccccc3)nc(=O)n(C(C)C)c2c1 | 0.92 | 0.52 | 9.45 | 1.27 | 0.02 |
| CCCC(NC(C)C(=O)N1C(C(=O)O)C[C@@H]2CCCC[C@@H]21)C(=O)O (some centres undefined) | 7.6 |  | 1.7 | 29 | 0.16 |
| COc1cccc2c1C(=O)c1c(O)c3c(c(O)c1C2=O)C[C@@](O)(C(=O)CO)C[C@@H]3O[C@@H]1C[C@H](N)[C@H](O[C@@H]2CCCCO2)[C@H](C)O1 | 12.5 | 43.2 | 57.7 | 11.1 |  |
| COc1cccc2c1C(=O)c1c(O)c3c(c(O)c1C2=O)C[C@@](O)(C(=O)CO)C[C@@H]3O[C@H]1C[C@H](N)[C@H](OCc2ccccc2)[C@H](C)O1 | 43.2 | 48 | 18.5 | 34.6 |  |
| [H]/N=C(\N)c1cccc(CC(C(=O)OC)[C@@H](C)NC(=O)c2ccc(-c3cc[n+]([O-])cc3)cc2)c1 (some centres undefined) | 2.02 | 0.89 | 7.38 | 3 |  |
| C[C@@H](N/C(=N\c1ccncc1)NC#N)C(C)(C)C | 3.2 | 1.1 | 5.68 | 2.5 | 0.6 |
| O=C(CCCN1CC=C(n2c(=O)[nH]c3ccccc32)CC1)c1ccc(F)cc1 | 2.73 | 1.41 | 8.92 | 1.9 |  |
| C=CCc1ccccc1OCC(O)CNC(C)C (centres undefined) | 3.6 | 3.2 | 15 | 2.5 |  |
| CN1C(=O)C(O)C[C@H]1c1cccnc1 (some centres undefined) | 7.9 | 0.85 | 1.8 | 5.9 |  |
| O=C1c2cccc3c2[C@H](CCC3)CN1[C@@H]1CN2CCC1CC2 | 40 | 6.3 | 2.6 | 39 | 0.38 |
| NC[C@H]1OB(O)c2c(OCCCO)cccc21 | 9.6 | 2.37 | 4.1 | 11.6 |  |
